In brackets after ≈: the same amount, converted by molar mass.
Legend:
J774 macrophages = test: Alamar Blue macrophage J774 viability assay; type: cell-based; details: Mus musculus; J774 cells, 72 hours with compound, Alamar Blue readout; read-out: IC50
Protocol: (§1) Initial screening of candidate compounds was performed using in vitro assays to determine potency, metabolic stability and solubility in biologically relevant fluids. Potency was assessed using a viability assay based on the survival of the J774 macrophage cell line. Macrophages are closely related to osteoclasts and have been used previously as a model system for osteoclast survival (see, e.g., Luckman et al., 1998). Like osteoclasts, J774 macrophages are dependent on continued NFκB activation for survival, thereby providing a valuable screen for compounds with anti-inflammatory activity. Metabolic stability was measured by determining the rate of disappearance of compound in the presence of human liver microsomal preparations, as quantified by LC-MS/MS. Solubility was measured by equilibration of the compound in fasted state simulated intestinal fluid (FaSSIF) and quantified by HPLC.
In vitro potency as anti-inflammatory agents was determined for a number of APSAC compounds by incubation with J774 macrophages and subsequent determination of cell viability.
J774 cells were plated at 10^4 cells per well in 100 μL αMEM (α Modified Eagle Medium) in 96-well plates and grown overnight. The next day, test compounds were added to the cultures, and cultures were continued for another 72 hours. At the end of the culture period, cell survival was determined using an Alamar Blue assay as previously described (see, e.g., Nociari et al., 1998).
Alamar Blue is an oxidation-reduction sensitive indicator. The dye itself is in the oxidised state, which is blue and non-fluorescent. The dye can accept electrons from reducing species, such as NADPH and FADH, to form a reduced dye species, which is red and fluorescent. Thus the transformation from oxidised form to reduced form can be measured by fluorimetric or colourimetric means. For fluorescence measurements, 530-560 nm excitation and 590 nm emission wavelengths are typically used. For colourimetric measurements, absorbance at 570 nm (reduced form) and 600 nm (oxidised form) is typically measured. A simple calculation is performed to determine the relative quantities of the two species.
A high ratio of the reducing species, NADPH and FADH, to the corresponding oxidised species, NADP and FAD, is an indicator that cells are proliferating and viable. A low ratio indicates cells that are quiescent or non-viable.
Briefly, Alamar Blue (Biosource International) was added undiluted to the each well (1:10 v/v, 10 μL). The plate was incubated at 37° C. for 3-4 hours and the fluorescence was measured at 590 nm, with a 25 nm bandwidth. A high reading indicated cells with normal viability, and a low reading indicated cells that have been damaged and are no longer proliferating normally. The controls gave a high fluorescence reading, indicating a high number of live, healthy cells. A potent test compound gave a low fluorescence reading. The average results for each test compound (n=5) were expressed as a percent (%) of the average control value.
Addition of Compounds. All of the compounds studied were made up as 100 mM solutions in DMSO. These stock solutions were then diluted 1000-10000× in culture medium (αMEM). From these 100 μM or 10 μM solutions, convenient quantities (3-33 μL) were added directly to the wells so as to give the desired final compound concentration.

[1] = Human liver microsomal stability assay; type: in vitro ADME; details: pooled human liver microsomes 0.5 mg/mL, 3 μM compound, NADPH, 45 minute incubation; for half-life at 3 µM: both sexes, pH 7.4
Protocol: as §1, with “Macrophages are closely related to osteoclasts and have been used previously as a model system for osteoclast survival (see, e.g., Luckman et al., 1998).” left out
Metabolic stability of APSAC derivatives was measured by determination of the rate of compound disappearance when incubated in the presence of human liver microsomes. Liver microsomes are prepared from the endoplasmic reticulum of hepatocytes and are the primary source of the most important enzymes (cytochrome P450) involved in drug metabolism. Study of drug stability in the presence of liver microsomes is accepted as a valuable model permitting rapid prediction of in vivo drug stability.
Human liver microsomes were obtained from a commercial source. Test compounds (3 μM) were incubated with pooled liver microsomes (male and female). Samples were incubated for a 45 minute period and removed at 5 time points and test compounds were analysed by LC-MS/MS.
The final incubation volume was 25 μL. A control incubation was included for each compound tested, where 0.1 M phosphate buffer pH 7.4 was added instead of NADPH. The control compounds testosterone and 7-hydroxycoumarin were included in each experiment and all incubations were performed singularly for each compound.
Each compound was incubated for 0, 5, 15, 30, and 45 minutes. The control (minus NADPH) was incubated for 45 minutes only. […] The incubation plates were centrifuged at 2500 rpm for 20 minutes at 4° C. to precipitate the protein.
Following protein precipitation, the sample supernatants were combined in cassettes of up to 4 compounds and analysed using standard LC-MS/MS conditions.
From a plot of the natural logarithm of the peak area ratio (i.e., the ratio of compound peak area:internal standard peak area) against time, the gradient of the line was determined. Subsequently, half-life and intrinsic clearance were calculated using the equations below: Eliminated rate constant (k)=(−gradient). […] Pharmacokinetics Studies

[2] = Thermodynamic aqueous solubility in fasted state simulated intestinal fluid (FaSSIF); type: physicochemical; details: pH 6.5, thermodynamic from solid, equilibrated at 25° C. for 24 hours, HPLC
Protocol: as §1, with “Macrophages are closely related to osteoclasts and have been used previously as a model system for osteoclast survival (see, e.g., Luckman et al., 1998).” left out
Thermodynamic aqueous solubility was measured by equilibration of a number of APSAC compounds, in the solid state, with fasted state simulated intestinal fluid (FaSSIF) and quantified by HPLC. Measurement of solubility in FaSSIF provides a valuable model for the prediction of drug dissolution following oral administration.
The pH was adjusted to 6.5 using 1 M NaOH solution.
0.6 mL of a solution containing 100 mg/mL lecithin in methylene chloride was added. The methylene chloride was eliminated under vacuum at about 40° C. The vacuum was drawn for 15 minutes at 250 mbar, followed by 15 minutes at 100 mbar. […] After cooling to room temperature, the solution was then adjusted to 100 mL with blank FaSSIF.
The suspension was equilibrated at 25° C. for 24 hours, and then the pH was measured. The suspension was then filtered through a glass fibre C filter into a 96-well plate. The filtrate was then diluted by a factor of 100. Quantification was made by HPLC with reference to a standard solution of compound at approximately 0.1 mg/mL in DMSO. Different volumes of the standard, diluted and undiluted sample solutions were injected. […] Analysis was performed on an Agilent HP1100 series system equipped with a diode array detector and using ChemStation software vB.02.01-SR1.

caspase 3 = test: Caspase induction study (Nucview488 fluorogenic substrate) in the presence of TNFα; type: cell-based; details: human monocytes, 10 μM test compound, 10 ng/mL TNFα, Nucview488 stain
Protocol: The ability to activate caspase 3 was studied using a fluorogenic enzyme substrate assay.
Briefly, human primary monocytes were isolated from whole blood using Ficoll gradients. The resulting cells were plated into microwell plates for 24 hours after which non-adherent cells were removed by washing. Cells were differentiated in the presence of 100 ng/mL MCSF. Cells were pre-treated with 10 μM test compound for 1 hour prior to stimulation with 10 ng/mL TNFα. Caspase 3 activation as an indicator of apoptosis was detected using the Nucview488 stain, which was added one hour prior to visualisation. The Nucview488 stain indicates the activation of caspase 3 (CPP32, apopain, YAMA), a cysteine peptidase which plays a key role in the induction of apoptosis in individual whole mammalian cells. Essentially, Nucview488 consists of a fluorogenic DNA dye and a DEVD substrate moiety specific for caspase 3. In itself, Nucview488 is nonfluorescent. However, upon entering the cell cytoplasm, Nucview488 is cleaved by caspase 3 to form a high-affinity DNA dye. The released DNA dye migrates to the cell nucleus to stain the nucleus bright green. This fluorescent staining produced in response to caspase 3 activity is monitored using fluorescent light microscopy.

`O=S(=O)(N[C@@H]1CCC[C@@H]1CO)c1ccc(-c2ccc(F)cc2F)cc1` (relative stereo) [ABD769, 2′,4′-Difluoro-N-(cis-2-(hydroxymethyl)cyclopentyl)biphenyl-4-sulfonamide] gave an IC50 (J774 macrophages) of 4.59 µM, a half-life at 3 µM [1] of 42 min and a solubility at 24 h [2] of 70 µg/mL (≈ 191 µM).
For `O=S(=O)(N[C@H]1CC[C@H](O)CC1)c1ccc(-c2ccc(F)cc2F)cc1` [ABD599, 2′,4′-Difluoro-N-(trans-4-hydroxycyclohexyl)biphenyl-4-sulfonamide], the IC50 (J774 macrophages) was 0.07 µM, the half-life at 3 µM [1] was 287 min and the “caspase 3 activation (fluorescence detected by light microscopy)” value (caspase 3) was “significant activation of caspase 3”. It also gave a solubility at 24 h [2] of 30 µg/mL (≈ 81.7 µM).
Work on `O=S(=O)(N[C@H]1CC[C@H](O)CC1)c1ccc(-c2ccc(Cl)cc2F)cc1` [ABD655, 4′-Chloro,2′-fluoro-N-(trans-4-hydroxycyclohexyl)biphenyl-4-sulfonamide] yielded an IC50 (J774 macrophages) of 0.18 µM, a half-life at 3 µM [1] of 228 min and a solubility at 24 h [2] of 30 µg/mL (≈ 78.2 µM).
Work on `O=S(=O)(NC1CCC(CO)CC1)c1ccc(-c2ccc(F)cc2F)cc1` (stereo not drawn) [ABD776, 2′,4′-Difluoro-N-(4-(trans-hydroxymethyl)cyclohexyl)biphenyl-4-sulfonamide] yielded an IC50 (J774 macrophages) of 0.8 µM, a half-life at 3 µM [1] of 137 min and a solubility at 24 h [2] of 82 µg/mL (≈ 215 µM).
With `O=S(=O)(N[C@H]1CC[C@@H](O)CC1)c1ccc(-c2ccc(F)cc2F)cc1` [ABD777, 2′,4′-Difluoro-N-(cis-4-hydroxycyclohexyl)biphenyl-4-sulfonamide] the IC50 (J774 macrophages) was 1.9 µM, the half-life at 3 µM [1] was 69 min and the solubility at 24 h [2] was 60 µg/mL (≈ 163 µM).
Work on `O=C1CCC(NS(=O)(=O)c2ccc(-c3ccc(F)cc3F)cc2)CC1` [ABD786, 2′,4′-Difluoro-N-(4-oxocyclohexyl)biphenyl-4-sulfonamide] yielded an IC50 (J774 macrophages) of 0.28 µM, a half-life at 3 µM [1] of 12 min and a solubility at 24 h [2] of 32 µg/mL (≈ 87.6 µM).
In the case of `NC1CCC(NS(=O)(=O)c2ccc(-c3ccc(F)cc3F)cc2)CC1` (stereo not shown) [ABD787], the IC50 (J774 macrophages) is reported as 3.55 µM, the T1/2 [1] is reported as “Stable” and the solubility at 24 h [2] is reported as 140 µg/mL (≈ 382 µM).
In the case of `CC(C)(O)[C@H]1CC[C@H](NS(=O)(=O)c2ccc(-c3ccc(F)cc3F)cc2)CC1` [ABD794, 2′,4′-Difluoro-N-(trans-4-(2-hydroxypropan-2-yl)cyclohexyl)biphenyl-4-sulfonamide], the IC50 (J774 macrophages) is reported as 2.1 µM, the T1/2 [1] is reported as “Stable” and the solubility at 24 h [2] is reported as 12 µg/mL (≈ 29.3 µM).
With `CC(C)(O)[C@H]1CC[C@@H](NS(=O)(=O)c2ccc(-c3ccc(F)cc3F)cc2)CC1` [ABD795, 2′,4′-Difluoro-N-(cis-4-(2-hydroxypropan-2-yl)cyclohexyl)biphenyl-4-sulfonamide] the IC50 (J774 macrophages) was 2.7 µM, the half-life at 3 µM [1] was 15 min and the solubility at 24 h [2] was 50 µg/mL (≈ 122 µM).
Compound `CC(C)(O)[C@@H]1CC[C@H](NS(=O)(=O)c2ccc(-c3ccc(F)cc3F)cc2)C1` [ABD796, 2′,4′-Difluoro-N-((1S,3R)-3-(2-hydroxypropan-2-yl)cyclopentyl)biphenyl-4-sulfonamide] has an IC50 (J774 macrophages) of under 0.3 µM, a half-life at 3 µM [1] of 54 min and a solubility at 24 h [2] of 200 µg/mL (≈ 506 µM).
In the case of `CN(C)[C@H]1CC[C@@H](NS(=O)(=O)c2ccc(-c3ccc(F)cc3F)cc2)CC1` [ABD798, N-(cis-4-(Dimethylamino)cyclohexyl)-2′,4′-difluorobiphenyl-4-sulfonamide], the IC50 (J774 macrophages) is reported as 0.6 µM, the T1/2 [1] is reported as “Stable” and the solubility at 24 h [2] is reported as 4700 µg/mL (≈ 11900 µM).
With `CN(C)[C@H]1CC[C@H](NS(=O)(=O)c2ccc(-c3ccc(F)cc3F)cc2)CC1` [ABD799, N-(trans-4-(Dimethylamino)cyclohexyl)-2′,4′-difluorobiphenyl-4-sulfonamide] the IC50 (J774 macrophages) was 0.4 µM, the T1/2 [1] was “Stable” and the solubility at 24 h [2] was 7200 µg/mL (≈ 18300 µM).
With `N[C@H]1CC[C@@H](NS(=O)(=O)c2ccc(-c3ccc(F)cc3F)cc2)CC1` [ABD812, N-(cis-4-Aminocyclohexyl)-2′,4′-difluorobiphenyl-4-sulfonamide] the IC50 (J774 macrophages) was 7.6 µM, the half-life at 3 µM [1] was 585 min and the solubility at 24 h [2] was 980 µg/mL (≈ 2670 µM).
`O=S(=O)(N[C@H]1CC[C@H](CO)C1)c1ccc(-c2ccc(F)cc2F)cc1` [ABD813, 2′,4′-Difluoro-N-((1S,3S)-3-(hydroxymethyl)cyclopentyl)biphenyl-4-sulfonamide] showed an IC50 (J774 macrophages) of 0.57 µM, a half-life at 3 µM [1] of 45.4 min and a solubility at 24 h [2] of 330 µg/mL (≈ 898 µM).
Compound `CC(C)(O)[C@H]1CC[C@H](NS(=O)(=O)c2ccc(-c3ccc(F)cc3F)cc2)C1` [ABD815, 2′,4′-Difluoro-N-((1S,3S)-3-(2-hydroxypropan-2yl)cyclopentyl) biphenyl-4-sulfonamide] has an IC50 (J774 macrophages) of under 0.3 µM, a half-life at 3 µM [1] of 13.2 min and a solubility at 24 h [2] of 250 µg/mL (≈ 632 µM).

From patent US9616037B2, “Aryl-phenyl-sulfonamido-cycloalkyl compounds and their use” (PIMCO 2664 Limited, priority 2008, dated 2017)
